{
  "source": "ChEMBL document CHEMBL5335815",
  "about": "“The Greater Celandine: Identification and Characterization of an Antimicrobial Peptide from Chelidonium majus” (J Nat Prod, 2024)",
  "key": {"[1]": {"experiment": "Proteolytic stability assessed as proteinase K (unknown origin) mediated compound degradation incubated for 10 mins by LC-MS analysis", "format": "ADME", "conditions": "human"}, "[2]": {"experiment": "Proteolytic stability assessed as proteinase K (unknown origin)-mediated compound degradation in presence of reduced and alkylated cysteines measured after 10 mins by LC-MS analysis", "format": "ADME"}, "[3]": {"tested_on": "Proteinase K (Engyodontium album)", "experiment": "Inhibition of proteinase K (Engyodontium album)"}, "Escherichia coli": {"tested_on": "Escherichia coli", "experiment": "Induction of BasS protein expression in Escherichia coli assessed as fold increase at 5 microg/ml", "format": "functional", "conditions": "dose 5.0 µg/ml"}},
  "note": "Active and inactive are the calls of the source. The rule behind the calls is not given here. Bridge positions count the residues as written; N and C are the ends. Peptide text beside a SMILES is read from it.",
  "data": [
    {"smiles": "CC[C@H](C)[C@@H]1NC(=O)[C@H](Cc2ccccc2)NC(=O)[C@H](Cc2ccccc2)NC(=O)[C@H](CCCNC(=N)N)NC(=O)[C@H](CCCNC(=N)N)NC(=O)[C@H](CCCCN)NC(=O)[C@H](CCCCN)NC(=O)[C@H](CC(=O)O)NC(=O)[C@H](C(C)C)NC(=O)[C@H](CO)NC(=O)[C@H](CCCCN)NC(=O)[C@@H]2CSSC[C@@H](C(=O)N[C@@H](CC(N)=O)C(=O)O)NC(=O)[C@@H]3CSSC[C@H](N)C(=O)NCC(=O)N[C@@H](CSSC[C@H](NC(=O)[C@H]([C@@H](C)O)NC(=O)[C@@H]4CCCN4C1=O)C(=O)N[C@@H](CC(C)C)C(=O)N[C@@H](CCCNC(=N)N)C(=O)N[C@@H](CO)C(=O)N3)C(=O)N[C@@H](Cc1ccc(O)cc1)C(=O)N2", "note": "(H-CGCYCKSVDKKRRFFIPTCLRSCCN-OH; disulfide 1-23, 3-19, 5-24)", "values": [
      {"measurement": "Stability", "setting": "[1]", "value": "Stable"},
      {"measurement": "Stability", "setting": "[2]", "value": "Unstable"},
      {"measurement": "inhibition", "setting": "[3]", "value": "inactive"}
    ]},
    {"smiles": "CC[C@H](C)[C@H](NC(=O)[C@H](Cc1ccccc1)NC(=O)[C@H](Cc1ccccc1)NC(=O)[C@H](CCCNC(=N)N)NC(=O)[C@H](CCCNC(=N)N)NC(=O)[C@H](CCCCN)NC(=O)[C@H](CCCCN)NC(=O)[C@H](CC(=O)O)NC(=O)[C@@H](NC(=O)[C@H](CO)NC(=O)[C@H](CCCCN)NC(=O)[C@H](CS)NC(=O)[C@H](Cc1ccc(O)cc1)NC(=O)[C@H](CS)NC(=O)CNC(=O)[C@@H](N)CS)C(C)C)C(=O)N1CCC[C@H]1C(=O)N[C@H](C(=O)N[C@@H](CS)C(=O)N[C@@H](CC(C)C)C(=O)N[C@@H](CCCNC(=N)N)C(=O)N[C@@H](CO)C(=O)N[C@@H](CS)C(=O)N[C@@H](CS)C(=O)N[C@@H](CC(N)=O)C(=O)O)[C@@H](C)O", "note": "(H-CGCYCKSVDKKRRFFIPTCLRSCCN-OH)", "values": [
      {"measurement": "fold change (FC)", "setting": "Escherichia coli", "value": 83.8}
    ]}
  ]
}
